Laboratory results reported in patent publication US11091477B2 (Madera Therapeutics, LLC, priority 2016, dated 2021).

What follows are compounds tested on HCT116 (human colon cancer) (assay: CCK-8 cell viability assay on HCT116 human colon cancer cells). Details: HCT-116, 48 h, HCT116 cells, 48 hours compound incubation, CCK-8, read-out: EC50 (uM, HCT116).
Assay type: cell-based
Protocol: The plate is incubated for 48 hours.

In order of rising EC50:
1. Cn1c2c(c(=O)n(Cc3ccc(Br)cc3)c1=O)CN(Cc1cccc(C#N)c1)CC2 [Example 24, 3-((3-(4-bromobenzyl)-1-methyl-2,4-dioxo-1,2,3,4,7,8-hexahydropyrido[4,3-d]pyrimidin-6(5H)-yl)methyl)benzonitrile]  0.022 µM
2. Cn1c2c(c(=O)n(Cc3ccc(C(F)(F)F)cc3)c1=O)CN(Cc1cccc(Cl)c1)CC2 [Example 22, 6-(3-chlorobenzyl)-1-methyl-3-(4-(trifluoromethyl)benzyl)-5,6,7,8-tetrahydropyrido[4,3-d]pyrimidine-2,4(1H,3H)-dione]  0.1 µM
3. Cc1cccc(Cn2c(=O)c3c(n(C)c2=O)CCN(Cc2ccccc2)C3)c1 [Example 3, 6-benxyl-1-methyl-3-[(3-methylphenyl)methyl]-1H, 2H, 3H, 4H, 5H, 6H, 7H, 8H-pyrido[4,3-d]pyrimidine-2,4-dione]  0.18 µM
4. CCn1c2c(c(=O)n(Cc3ccc(Cl)cc3)c1=O)CN(Cc1cccc(C#N)c1)CC2 [Example 28, 3-((3-(4-chlorobenzyl)-1-ethyl-2,4-dioxo-1,2,3,4,7,8-hexahydropyrido[4,3-d]pyrimidin-6(5H)-yl)methyl)benzonitrile]  0.21 µM
5. Cn1c2c(c(=O)n(Cc3ccc(Cl)cc3)c1=O)CN(Cc1ccccc1)CC2 [Example 6, 6-benzyl-3-(4-chlorobenzyl)-1-methyl-5,6,7,8-tetrahydropyrido[4,3-d]pyrimidine-2,4(1H,3H)-dione]  0.26 µM
6. Cn1c2c(c(=O)n(Cc3ccc(C(F)(F)F)cc3)c1=O)CN(Cc1ccccc1)CC2 [Example 9]  0.31 µM
7. Cn1c2c(c(=O)n(Cc3ccc(C(F)(F)F)cc3)c1=O)CN(Cc1cccc(C#N)c1)CC2 [Example 26, 3-((1-methyl-2,4-dioxo-3-(4-(trifluoromethyl)benzyl)-1,2,3,4,7,8-hexahydropyrido[4,3-d]pyrimidin-6(5H)-yl)methyl)benzonitrile]  0.5 µM
8. C#Cc1cccc(CN2CCc3c(c(=O)n(Cc4cccc(C)c4)c(=O)n3C)C2)c1 [Example 20, 6-(3-ethynylbenzyl)-1-methyl-3-(3-methylbenzyl)-5,6,7,8-tetrahydropyrido[4,3-d]pyrimidine-2,4(1H,3H)-dione]  1 µM
9. Cn1c2c(c(=O)n(Cc3cccc(Br)c3)c1=O)CN(Cc1ccccc1)CC2 [Example 17, 6-benzyl-3-(3-bromobenzyl)-1-methyl-5,6,7,8-tetrahydropyrido[4,3-d]pyrimidine-2,4(1H,3H)-dione]  1.1 µM
10. C#Cc1cccc(CN2CCc3c(c(=O)n(Cc4ccc(C(F)(F)F)cc4)c(=O)n3C)C2)c1 [Example 18, 6-(3-ethynylbenzyl)-1-methyl-3-(4-(trifluoromethyl)benzyl)-5,6,7,8-tetrahydropyrido[4,3-d]pyrimidine-2,4(1H,3H)-dione]  1.4 µM
11. C#Cc1cccc(CN2CCc3c(c(=O)n(Cc4ccc(Cl)cc4)c(=O)n3C)C2)c1 [Example 21, 3-(4-chlorobenzyl)-6-(3-ethynylbenzyl)-1-methyl-5,6,7,8-tetrahydropyrido[4,3-d]pyrimidine-2,4(1H,3H)-dione]  1.4 µM
12. C#Cc1cccc(CN2CCc3c(c(=O)n(Cc4ccccc4C)c(=O)n3C)C2)c1 [Example 19, 6-(3-ethynylbenzyl)-1-methyl-3-(2-methylbenzyl)-5,6,7,8-tetrahydropyrido[4,3-d]pyrimidine-2,4(1H,3H)-dione]  1.5 µM
13. CCn1c2c(c(=O)n(Cc3ccc(C(F)(F)F)cc3)c1=O)CN(Cc1cccc(C#N)c1)CC2 [Example 27, 3-((1-ethyl-2,4-dioxo-3-(4-(trifluoromethyl)benzyl)-1,2,3,4,7,8-hexahydropyrido[4,3-d]pyrimidin-6(5H)-yl)methyl)benzonitrile]  1.9 µM
14. Cc1cccc(Cn2c(=O)c3c(n(C(C)C)c2=O)CCN(Cc2ccccc2)C3)c1 [Example 4, 6-benzyl-1-isopropyl-3-(3-methylbenzyl)-5,6,7,8-tetrahydropyrido[4,3-d]pyrimidine-2,4(1H,3H)-dione]  2 µM
15. CCn1c2c(c(=O)n(Cc3cccc(C(F)(F)F)c3)c1=O)CN(Cc1ccccc1)CC2 [Example 14, 3-(3-(trifluoromethyl)benzyl)-6-benzyl-1-ethyl-5,6,7,8-tetrahydropyrido[4,3-d]pyrimidine-2,4(1H,3H)-dione]  2.5 µM
16. Cn1c2c(c(=O)n(Cc3ccc4c(c3)OCO4)c1=O)CN(Cc1ccccc1)CC2 [Example 23, 3-(benzo[d][1,3]dioxol-5-ylmethyl)-6-benzyl-1-methyl-5,6,7,8-tetrahydropyrido[4,3-d]pyrimidine-2,4(1H,3H)-dione]  2.5 µM
17. O=c1[nH]c2c(c(=O)n1Cc1ccc(C(F)(F)F)cc1)CN(Cc1ccccc1)CC2 [Example 8, 3-(4-(trifluoromethyl)benzyl)-6-benzyl-5,6,7,8-tetrahydropyrido[4,3-d]pyrimidine-2,4(1H,3H)-dione]  2.6 µM
18. O=c1[nH]c2c(c(=O)n1Cc1ccc(Cl)cc1)CN(Cc1ccccc1)CC2 [Example 5, 6-benzyl-3-(4-chlorobenzyl)-5,6,7,8-tetrahydropyrido[4,3-d]pyrimidine-2,4(1H,3H)-dione]  2.7 µM
19. Cc1cccc(Cn2c(=O)[nH]c3c(c2=O)CN(Cc2ccccc2)CC3)c1 [Example 2, 6-benzyl-3-[(3-methylphenyl)methyl]-1H, 2H, 3H, 4H, 5H, 6H, 7H, 8H-pyrido[4,3-d]pyrimidine-2,4-dione]  3 µM
20. Cn1c2c(c(=O)n(Cc3cccc(Cl)c3)c1=O)CN(Cc1ccccc1)CC2 [Example 15, 3-(3-chlorobenzyl)-6-benzyl-5,6,7,8-tetrahydro-1-methylpyrido[4,3-d]pyrimidine-2,4(1H,3H)-dione]  3 µM
21. CC(C)n1c2c(c(=O)n(Cc3ccc(Cl)cc3)c1=O)CN(Cc1ccccc1)CC2 [Example 7, 6-benzyl-3-(4-chlorobenzyl)-1-isopropyl-5,6,7,8-tetrahydropyrido[4,3-d]pyrimidine-2,4(1H,3H)-dione]  6.6 µM
22. CC(C)n1c2c(c(=O)n(Cc3ccc(C(F)(F)F)cc3)c1=O)CN(Cc1ccccc1)CC2 [Example 10, 3-(4-(trifluoromethyl)benzyl)-6-benzyl-5,6,7,8-tetrahydro-1-isopropylpyrido[4,3-d]pyrimidine-2,4(1H,3H)-dione]  7.1 µM

Same assay, conditions: HCT-116, 48 h, read-out: EC50 (uM, HCT116)

In order of falling EC50:
1. Cc1ccccc1CN1C(=O)C2=C(CCN(Cc3ccccc3)C2)N2CCN=C12 [TIC10, 11-benzyl-7-[(2-methylphenyl)methyl]-2,5,7,11-tetraazatricyclo[7.4.0.0^2,6]trideca-1(9),5-dien-8-one, reference compound]  2.8 µM
2. Cn1c2c(c(=O)n(Cc3cccc(C(F)(F)F)c3)c1=O)CN(Cc1ccccc1)CC2 [Example 13]  1.4 µM
3. Cn1c2c(c(=O)n(Cc3ccc(Cl)cc3)c1=O)CN(Cc1cccc(C#N)c1)CC2 [Example 25, 3-((3-(4-chlorobenzyl)-1-methyl-2,4-dioxo-1,2,3,4,7,8-hexahydropyrido[4,3-d]pyrimidin-6(5H)-yl)methyl)benzonitrile]  0.74 µM

The compounds below were run on SUM159 (assay: CCK-8 cell viability assay on SUM159 human breast cancer cells). Details: Homo sapiens, SUM159, 72 h, read-out: EC50 (uM, SUM159).
Protocol: The plate was incubated for 24 hours in a humidified incubator (37° C., 5% CO2). The compound from the present invention, at the appropriate test concentrations, are added to the culture media of the plate. The plate is incubated for 48 hours. CCK-8 (10 ul, see below) is added to each well. The plate is incubated from 1-4 h under conditions as described above, and the absorbance at 450 nm and 650 nm is measured with a plate reader.
Cell Counting was by CCK-8 using WST-8 (2-(2-methoxy-4-nitrophenyl)-3-(4-nitrophenyl)-5-(2,4-disulfophenyl)-2H-tetrazolium, monosodium salt), which produces a water-soluble formazan dye upon bioreduction in the presence of an electron carrier, 1-Methoxy PMS. CCK-8 solution is added directly to the cells. WST-8 is bioreduced by cellular dehydrogenases to an orange formazan product that is soluble in tissue culture medium. The amount of formazan produced is directly proportional to the number of living cells.

In order of falling EC50:
1. Cc1ccccc1CN1C(=O)C2=C(CCN(Cc3ccccc3)C2)N2CCN=C12 [TIC10, 11-benzyl-7-[(2-methylphenyl)methyl]-2,5,7,11-tetraazatricyclo[7.4.0.0^2,6]trideca-1(9),5-dien-8-one, reference compound]  1.4 µM
2. Cn1c2c(c(=O)n(Cc3ccc(C(F)(F)F)cc3)c1=O)CN(Cc1cccc(C#N)c1)CC2 [Example 26, 3-((1-methyl-2,4-dioxo-3-(4-(trifluoromethyl)benzyl)-1,2,3,4,7,8-hexahydropyrido[4,3-d]pyrimidin-6(5H)-yl)methyl)benzonitrile]  0.017 µM
3. Cn1c2c(c(=O)n(Cc3ccc(Cl)cc3)c1=O)CN(Cc1cccc(C#N)c1)CC2 [Example 25, 3-((3-(4-chlorobenzyl)-1-methyl-2,4-dioxo-1,2,3,4,7,8-hexahydropyrido[4,3-d]pyrimidin-6(5H)-yl)methyl)benzonitrile]  0.014 µM

Same assay, conditions: SUM159 cells, 72 hours, versus TIC10

For `Cn1c2c(c(=O)n(Cc3ccc(Cl)cc3)c1=O)CN(Cc1cccc(C#N)c1)CC2` [Example 25, 3-((3-(4-chlorobenzyl)-1-methyl-2,4-dioxo-1,2,3,4,7,8-hexahydropyrido[4,3-d]pyrimidin-6(5H)-yl)methyl)benzonitrile], the “potency on human cancer lines in comparison to TIC10” value was “significant and unanticipated improvements in potency”.
For `Cn1c2c(c(=O)n(Cc3ccc(C(F)(F)F)cc3)c1=O)CN(Cc1cccc(C#N)c1)CC2` [Example 26, 3-((1-methyl-2,4-dioxo-3-(4-(trifluoromethyl)benzyl)-1,2,3,4,7,8-hexahydropyrido[4,3-d]pyrimidin-6(5H)-yl)methyl)benzonitrile], the “potency on human cancer lines in comparison to TIC10” value was “significant and unanticipated improvements in potency”.
